Reference: ChEMBL document CHEMBL1140804, “Design, synthesis and evaluation of trifluoromethane sulfonamide derivatives as new potent and selective peroxisome proliferator-activated receptor alpha agonists” (Bioorg Med Chem Lett, 2008)

Experiments:
[1] = Oral bioavailability in mouse at 5 mg/kg; assay type: ADME, organism-based; conditions: in vivo
[2] = Clearance in mouse plasma at 0.2 mg/kg, iv or 5 mg/kg, po; assay type: ADME, organism-based
[3] = Cmax in mouse plasma at 5 mg/kg, po; assay type: ADME, organism-based; set-up: dose 5 mg/kg, route oral
[4] = Volume of distribution in mouse plasma at 0.2 mg/kg, iv or 5 mg/kg, po; assay type: ADME, organism-based; conditions: read-out: Vdss
[5] = Half life in mouse plasma at 0.2 mg/kg, iv or 5 mg/kg, po; assay type: ADME, organism-based
[6] = AUC in mouse plasma at 5 mg/kg, po; assay type: ADME, organism-based; set-up: dose 5 mg/kg, route oral
[7] = system: Mus musculus; assay: Reduction of triglyceride level in human Apo-A1 transgenic C57B6 mouse at 20 mg/kg, po bid after 5 days; assay type: functional; set-up: scale not given: the % may be the effect or the level left
[8] = system: Mus musculus; assay: Reduction of VLDL cholesterol level in human Apo-A1 transgenic C57B6 mouse at 20 mg/kg, po bid after 5 days; assay type: functional; set-up: scale not given: the % may be the effect or the level left
[9] = system: Mus musculus; assay: Reduction of LDL cholesterol level in human Apo-A1 transgenic C57B6 mouse at 20 mg/kg, po bid after 5 days; assay type: functional; set-up: scale not given: the % may be the effect or the level left
[10] = system: Mus musculus; assay: Elevation of HDL cholesterol level in human Apo-A1 transgenic C57B6 mouse at 20 mg/kg, po bid after 5 days; assay type: functional
[11] = target: T1, Peroxisome proliferator-activated receptor alpha (Homo sapiens, UniProt Q07869)
T1 sequence (Q07869 whole entry): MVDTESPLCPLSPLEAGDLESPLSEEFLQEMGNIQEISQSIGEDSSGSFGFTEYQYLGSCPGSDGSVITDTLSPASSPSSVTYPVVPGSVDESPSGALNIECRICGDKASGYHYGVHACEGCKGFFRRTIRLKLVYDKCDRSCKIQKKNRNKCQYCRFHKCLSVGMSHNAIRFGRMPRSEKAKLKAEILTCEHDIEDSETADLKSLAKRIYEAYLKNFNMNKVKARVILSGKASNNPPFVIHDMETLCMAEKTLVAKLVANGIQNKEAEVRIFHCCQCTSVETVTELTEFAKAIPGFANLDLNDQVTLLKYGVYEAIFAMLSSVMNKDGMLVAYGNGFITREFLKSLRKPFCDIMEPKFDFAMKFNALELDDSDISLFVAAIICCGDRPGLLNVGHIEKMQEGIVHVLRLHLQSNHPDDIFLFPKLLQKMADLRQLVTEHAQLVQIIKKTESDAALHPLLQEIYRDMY
Description: Agonist activity at human PPARalpha assessed as receptor activation by cell based assay

[12] = target: T2, Peroxisome proliferator-activated receptor alpha (Mus musculus, UniProt P23204)
T2 sequence (P23204 whole entry): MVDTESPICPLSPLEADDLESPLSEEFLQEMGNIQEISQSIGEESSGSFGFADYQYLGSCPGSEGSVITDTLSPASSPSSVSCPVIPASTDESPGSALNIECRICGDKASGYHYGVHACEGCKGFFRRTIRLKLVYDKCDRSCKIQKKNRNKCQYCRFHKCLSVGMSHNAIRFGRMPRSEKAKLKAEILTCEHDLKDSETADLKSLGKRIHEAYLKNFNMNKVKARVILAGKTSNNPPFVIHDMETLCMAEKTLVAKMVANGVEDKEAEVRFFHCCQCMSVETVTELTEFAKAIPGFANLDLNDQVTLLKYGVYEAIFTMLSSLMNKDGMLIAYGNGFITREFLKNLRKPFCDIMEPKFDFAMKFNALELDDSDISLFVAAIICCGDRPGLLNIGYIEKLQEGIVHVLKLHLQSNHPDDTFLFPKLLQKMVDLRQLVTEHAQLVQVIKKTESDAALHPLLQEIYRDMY
Description: (§1) Agonist activity at mouse PPARalpha assessed as receptor activation by cell based assay

[13] = target: T3, Peroxisome proliferator-activated receptor delta (Homo sapiens, UniProt Q03181)
T3 sequence (Q03181 whole entry): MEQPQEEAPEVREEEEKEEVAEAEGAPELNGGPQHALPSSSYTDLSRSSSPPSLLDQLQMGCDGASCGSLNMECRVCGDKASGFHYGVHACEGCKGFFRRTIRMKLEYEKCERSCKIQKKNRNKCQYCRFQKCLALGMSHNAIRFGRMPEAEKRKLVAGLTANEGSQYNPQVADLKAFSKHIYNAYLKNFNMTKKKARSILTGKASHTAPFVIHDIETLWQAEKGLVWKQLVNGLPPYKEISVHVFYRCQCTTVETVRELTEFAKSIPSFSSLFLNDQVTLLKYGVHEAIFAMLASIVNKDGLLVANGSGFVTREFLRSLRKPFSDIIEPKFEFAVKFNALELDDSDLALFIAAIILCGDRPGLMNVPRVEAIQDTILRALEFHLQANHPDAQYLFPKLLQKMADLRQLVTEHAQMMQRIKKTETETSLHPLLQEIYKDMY
Description: Agonist activity at human PPARdelta assessed as receptor activation by cell based assay

[14] = target: T4, Peroxisome proliferator-activated receptor delta (Mus musculus, UniProt P35396)
T4 sequence (P35396 whole entry): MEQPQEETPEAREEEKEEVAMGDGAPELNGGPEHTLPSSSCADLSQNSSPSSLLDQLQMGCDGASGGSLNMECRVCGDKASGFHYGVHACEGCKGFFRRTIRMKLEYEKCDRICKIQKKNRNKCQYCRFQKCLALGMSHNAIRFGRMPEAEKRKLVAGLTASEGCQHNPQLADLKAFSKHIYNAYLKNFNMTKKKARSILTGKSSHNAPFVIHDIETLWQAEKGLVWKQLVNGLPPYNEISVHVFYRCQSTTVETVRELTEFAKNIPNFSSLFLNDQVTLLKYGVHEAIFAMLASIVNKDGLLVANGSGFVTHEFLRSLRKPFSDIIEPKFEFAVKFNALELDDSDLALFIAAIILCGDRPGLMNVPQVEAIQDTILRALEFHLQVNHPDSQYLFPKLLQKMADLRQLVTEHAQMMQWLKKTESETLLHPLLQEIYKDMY
Description: Agonist activity at mouse PPARdelta assessed as receptor activation by cell based assay

[15] = target: T5, Peroxisome proliferator-activated receptor gamma (Homo sapiens, UniProt P37231)
T5 sequence (P37231 whole entry): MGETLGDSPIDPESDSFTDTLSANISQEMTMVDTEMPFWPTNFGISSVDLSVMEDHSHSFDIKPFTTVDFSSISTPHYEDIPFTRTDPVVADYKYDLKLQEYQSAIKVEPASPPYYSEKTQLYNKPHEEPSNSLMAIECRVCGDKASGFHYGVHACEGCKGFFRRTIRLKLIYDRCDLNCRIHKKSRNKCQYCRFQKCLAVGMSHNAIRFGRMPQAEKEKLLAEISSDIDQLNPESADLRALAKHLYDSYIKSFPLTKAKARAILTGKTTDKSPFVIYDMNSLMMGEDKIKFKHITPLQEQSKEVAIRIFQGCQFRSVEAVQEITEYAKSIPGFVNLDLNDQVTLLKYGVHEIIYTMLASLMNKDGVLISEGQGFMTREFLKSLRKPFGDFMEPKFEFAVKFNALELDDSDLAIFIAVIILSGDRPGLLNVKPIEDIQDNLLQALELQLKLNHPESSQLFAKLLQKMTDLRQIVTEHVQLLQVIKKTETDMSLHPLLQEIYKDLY
Description: Agonist activity at human PPARgamma assessed as receptor activation by cell based assay

[16] = target: T6, Peroxisome proliferator-activated receptor gamma (Mus musculus, UniProt P37238)
T6 sequence (P37238 whole entry): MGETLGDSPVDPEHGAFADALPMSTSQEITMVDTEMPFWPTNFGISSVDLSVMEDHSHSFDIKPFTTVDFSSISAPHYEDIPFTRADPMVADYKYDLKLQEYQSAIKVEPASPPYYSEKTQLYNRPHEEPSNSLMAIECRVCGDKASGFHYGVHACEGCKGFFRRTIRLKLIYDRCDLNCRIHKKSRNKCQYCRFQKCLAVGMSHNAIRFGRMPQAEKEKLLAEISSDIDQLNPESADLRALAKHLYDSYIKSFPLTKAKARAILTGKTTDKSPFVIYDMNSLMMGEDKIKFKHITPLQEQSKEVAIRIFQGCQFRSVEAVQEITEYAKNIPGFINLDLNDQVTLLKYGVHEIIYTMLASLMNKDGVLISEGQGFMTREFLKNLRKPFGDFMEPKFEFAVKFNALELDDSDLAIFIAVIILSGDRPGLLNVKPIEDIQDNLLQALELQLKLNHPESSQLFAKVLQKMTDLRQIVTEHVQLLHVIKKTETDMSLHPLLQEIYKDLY
Description: Agonist activity at mouse PPARgamma assessed as receptor activation by cell based assay

[17] = target: T7, Peroxisome proliferator-activated receptor alpha (Mus musculus) (UniProt P23204)
T7 sequence (whole entry): T2 sequence (P23204 whole entry)
Description: as §1

O=C(NCc1ccc(NS(=O)(=O)C(F)(F)F)cc1)c1ccc(-c2ccc(Cl)cc2)cc1
bioavailability [1]: 16% | clearance [2]: 0.78 mL/min/kg | Cmax [3]: 4520 ng/mL | Vd [4]: 0.22 L/kg | half-life [5]: 4.9 h | AUC [6]: 18800 ng·h/mL | Activity [7]: -69% | Activity [8]: -85% | Activity [9]: -55% | Activity [10]: 102% | EC50 [11]: 5 nM | EC50 [12]: 20 nM | EC50 [13]: > 10000 nM | EC50 [14]: > 10000 nM | EC50 [15]: 1100 nM | EC50 [16]: 600 nM | Activity [17]: 123%
